Tested on: patients suspected of having stunned or hibernating myocardium
Assay: Dobutamine echocardiography, regional wall motion during D-Ribose or placebo infusion (randomized, double-blind, crossover clinical trial)
Type: in vivo
Conditions: during low-dose dobutamine infusion (5μ/kg/minute); D-Ribose 10% in water iv at 180 mg/kg/hour; 25 patients, 16 left ventricular segments each
Protocol: A single-center, randomized, double-blind placebo-controlled clinical trial was carried out to evaluate the safety and efficacy of D-Ribose on myocardial wall motion during echocardiographic examination in patients suspected of having stunned or hibernating myocardium. Patients were randomized into placebo and ribose groups according to a computer generated randomization schedule. The identity of the contents was blinded to the investigator. Patients were identified by initials. The selected study population was comprised of 25 patients (22 men and 3 women) with a mean age of 57+/−11 years. All had reduced left ventricular systolic function (mean ejection fraction 30+/−8%, range 18 to 48%). Twenty-two patients (88%) had prior myocardial infarction and only one subject was evaluated after recent (<4 weeks) infarction. […] Post-infusion images were recorded approximately eight minutes after discontinuation of dobutamine. […] Parasternal long and short-axis and apical two and four-chamber images were recorded on 0.5 inch videotape and digitally stored on floppy discs using a Nova MicroSonics DCR or Colorvue system (Mahwah, N.J.). […]

O=C[C@H](O)[C@H](O)[C@H](O)CO [D-Ribose]
segments in which wall motion improved: 65 segments
